Data on nine compounds can be found in article PMC6274350, “Design, Synthesis, and Cytotoxicity of 5-Fluoro-2-methyl-6-(4-aryl-piperazin-1-yl) Benzoxazoles” (Molecules, 2016).

For data set [1], the system named is A-549 lung carcinoma cells. Nature of the data set: CellTiter-Glo luminescent cell viability (cytotoxicity) assay on lung cancer cells. In kind it is cell-based, human. To be noted: Homo sapiens, A549, Lung cancer cells (A-549), 24 h, vs DMSO vehicle. As to the method: (§1) The cytotoxicity of prepared benzoxazoles (7a–j) and intermediates (6a–j and 9) were measured by applying the CellTiter-Glo® luminescent cell proliferation assay (G755A, Promega, Madison, WI, USA). This method permits the determination of viable cells numbers in the culture based on quantitation of the ATP present, which denotes the presence of metabolically active cells. In vitro cytotoxicity analysis was overall performed following the protocol as described in “Guidance Document on Using in Vitro Data to Estimate in Vivo Starting Doses for Acute Toxicity Based on Recommendations” [18]. Human A-549 cells are human lung cancer epithelial cells, which were chosen as the tumor model, whereas the HepaRG™ cell line is a classic hepatic cell line that retains many characteristics of primary human hepatocytes. HepaRG™ cells are terminally differentiated.
(§2) Human cell cultures: Hepatocytes (HepaRG^TM cells) were obtained from Life Technologies, and were cultivated in William’s E Medium (Gibco, Life Technologies, Waltham, MA, USA) and supplemented with 1x GlutaMAX™ plus 1x HepaRG^TM General Purpose Medium Supplement in 25-cm^2 or 75-cm^2 flasks (TPP, Trasadingen, Switzerland) at 37 °C and 5% CO2. Lung cancer epithelial cells A-549 were propagated in Epilife Medium (Gibco, Life Technologies; MEPICF) and combined with CaCl2 and 1x-growth-supplement containing penicillin and streptomycin (Gibco, Life Technologies). For sub-culturing, cells were split at a ratio of 1:4 to 1:8. For cryopreservation, cells were frozen in 10% DMSO in liquid nitrogen.
(§3) Human cytotoxicity assay: Human hepatocytes or human lung carcinoma cells were seeded into sterile black clear-bottomed polystyrene Corning® CellBind® 96-well plates (Munich, Germany) at a density of 20,000 cells/well after calculating cell numbers from trypsinized samples in a classical Neubauer Improved hemocytometer (VWR, Munich, Germany). The cells were grown for 24 h at 37 °C in a 5% CO2 atmosphere in Epilife medium (keratinocytes) or William′s E medium (hepatocytes). After a 24-h recovery period, media were removed from the wells by aspiration. The cells were then immediately exposed to the respective test compounds or reference antibiotics (prepared in advance in 100 µL of the same media) for 24 h 37 °C with 5% CO2. The concentration tested ranged from 0.1 µM to 500 µM (0.1 µM, 1 µM, 10 µM, 50 µM, 100 µM, 250 µM, and 500 µM) and was formulated as a 100× concentrated stock each, resulting in a final constant DMSO concentration of 1% per 100-µL sample volume. Test series were each performed in triplicate, and additionally included a vehicle reference (DMSO only) plus another internal control for evaluating overall assay performance. Additionally, cells were visually examined under a light microscope for any morphological abnormalities relative to the untreated cells. Subsequently, cell viability, as an indicator of potential cytotoxicity, was measured by applying the CellTiter-Glo® luminescent cell proliferation assay (G755A, Promega, Madison, WI, USA). This method permits the determination of the number of viable cells in culture based on quantitation of the ATP present, which denotes the presence of metabolically active cells. To this end, 100 µL (equal to the volume of culture medium) of the kit-provided CellTiter-Glo® reagent (reconstituted by transferring the thawed CellTiter-Glo® buffer to the lyophilized enzyme and substrate mixture) was directly added to each well with a repetitive dispensing pipette. The contents were then mixed for 2 min at room temperature on an orbital minishaker (IKA® MS3 digital, Staufen, Germany) at 450 rpm to induce efficient cell lysis, and then further incubated for 10 min at room temperature for stabilization of the resultant luminescent signal. […]
For orientation: ATP-based viability assays read luminescence as a measure of living cells.

A short description of data set [2]: Visible solubility / precipitation of test compounds in cell-culture media. In kind it is physicochemical. The following applies: for Precipitation in cell-culture media: 50 µM, no conclusion on cytotoxicity possible. As for the experimental part: Since the majority of test compound solutions with concentrations above 50 µM precipitated in cell-culture media, we performed cytotoxicity assays for healthy and cancer cells at 50 µM.

Data set [3] is described as follows: CellTiter-Glo luminescent cell viability (cytotoxicity) assay on hepatocytes. The following applies: human, Liver cells, hepatocytes (HepaRG), 24 h, vs DMSO vehicle. It is filed as cell-based, human. As for the experimental part: as §1, §2, §3
In data set [4] the test system is HepaRG cells (liver cells, hepatocytes). The description is as above. In kind it is cell-based, human. As for the experimental part: as §1, §2, §3

One may read the viability as a read-out of living cells in per cent, often relative to untreated cells. One may read the melting point as the temperature of the solid-liquid transition. For orientation: IC50 means the concentration needed to halve the response being measured.

Compound `Cc1nc2cc(F)c(N3CCN(c4ccccc4)CC3)cc2o1` [Compound 7a, 5-Fluoro-2-methyl-6-(4-phenylpiperazin-1-yl)-benzo[d]oxazole] displayed a melting point of 153 to 154 °C. In addition, in data set [1], the viability at 0.1 µM came to 101%, the viability at 1 µM is 96%, the viability at 10 µM turned out to be 90% and the viability at 50 µM came out at 60%. Moreover, the “Precipitation in cell-culture media” value in data set [2] is on record as “precipitation problem”. In addition, in data set [3], the viability at 24 h, 0.1 µM turned out to be 101%; the viability at 24 h, 1 µM came out at 97%; the viability at 24 h, 10 µM turned out to be 94%.

As to `COc1cccc(N2CCN(c3cc(O)c([N+](=O)[O-])cc3F)CC2)c1` [Compound 6i, 4-Fluoro-5-[4-(3-methoxy-phenyl)-piperazin-1-yl]-2-nitro-phenol], the melting point was in the range of 148 to 149 °C. In data set [1], the viability at 0.1 µM was 95%, the viability at 1 µM is 93%, the viability at 10 µM is 96% and the viability at 50 µM was 69%. Further, the “Precipitation in cell-culture media” value in data set [2] is on record as “precipitation problem”. Besides, in data set [3], the viability at 24 h, 0.1 µM turned out to be 79%; the viability at 24 h, 1 µM was determined as 95%; the viability at 24 h, 10 µM was 99%.

The compound `Cc1nc2cc(F)c(N3CCN(c4cccc(O)c4)CC3)cc2o1` [Compound 7h, 3-[4-(5-Fluoro-2-methyl-benzooxazol-6-yl)-piperazin-1-yl]-phenol] showed a melting point of 211 to 213 °C. Moreover, in data set [1], the viability at 0.1 µM came to 100%, the viability at 1 µM came out at 93%, the viability at 10 µM came out at 97% and the viability at 50 µM worked out at 95%. Further, the viability at 100 µM in data set [1] stood at 90%. In data set [2], the “Precipitation in cell-culture media” value is on record as “precipitation problem”. Moreover, in data set [3], the viability at 24 h, 0.1 µM is 100%; the viability at 24 h, 1 µM was 102%; the viability at 24 h, 10 µM was determined as 99%.

For `Cc1ccc(N2CCN(c3cc4oc(C)nc4cc3F)CC2)cc1` [Compound 7b, 5-Fluoro-2-methyl-6-(4-p-tolyl-piperazin-1-yl)-benzooxazole], the melting point was 168 to 170 °C. In addition, in data set [1], the viability at 0.1 µM was 92%, the viability at 1 µM is 94%, the viability at 10 µM was 92% and the viability at 50 µM was found to be 87%. The viability at 100 µM in data set [1] was 75%. In data set [3], the viability at 24 h, 0.1 µM is 105%; the viability at 24 h, 1 µM was determined as 99%; the viability at 24 h, 10 µM was found to be 91%; the viability at 24 h, 50 µM was determined as 63%. Moreover, the viability at 24 h, 100 µM in data set [3] was determined as 60%. For the same compound, the “Toxicity to healthy cells versus lung cancer cells” value in data set [4] (50 µM, HepaRG vs A-549) is on record as “more toxic to healthy cells compared with lung cancer cells”.

Regarding `Cc1nc2cc(F)c(N3CCN(c4ccccc4O)CC3)cc2o1` [Compound 7f, 2-[4-(5-Fluoro-2-methyl-benzooxazol-6-yl)-piperazin-1-yl]-phenol], the melting point fell in the range of 172 to 173 °C. Moreover, in data set [1], the viability at 0.1 µM was found to be 103%, the viability at 1 µM is 99%, the viability at 10 µM amounted to 91% and the viability at 50 µM turned out to be 91%. Besides, the viability at 100 µM in data set [1] was 95%. Moreover, the viability at 250 µM in data set [1] (250 µM) turned out to be 83%. Moreover, the viability at 500 µM in data set [1] (500 µM) stood at 63%. Besides, the “Solubility at test concentrations” value in data set [2] (cell-culture media, 0.1-500 µM) is recorded as “completely soluble at all concentrations”. Moreover, in data set [3], the viability at 24 h, 0.1 µM came to 106%; the viability at 24 h, 1 µM is 97%; the viability at 24 h, 10 µM came out at 86%; the viability at 24 h, 50 µM was found to be 59%. Further, the viability at 24 h, 100 µM in data set [3] was determined as 60%. Moreover, the viability at 24 h, 250 µM in data set [3] (250 µM) came to 53%. In data set [3] (500 µM), the viability at 24 h, 500 µM is 54%.

Take `Cc1nc2cc(F)c(N3CCN(c4ccc(F)cc4)CC3)cc2o1` [Compound 7d, 5-Fluoro-6-[4-(4-fluoro-phenyl)-piperazin-1-yl]-2-methyl-benzooxazole]: the melting point is 148 to 150 °C. In data set [1], the viability at 0.1 µM was 98%, the viability at 1 µM was determined as 98%, the viability at 10 µM came out at 87% and the viability at 50 µM is 87%. In data set [1], the viability at 100 µM was 82%. The “Precipitation in cell-culture media” value in data set [2] is “precipitation problem”. Besides, in data set [3], the viability at 24 h, 0.1 µM turned out to be 91%; the viability at 24 h, 1 µM was determined as 94%; the viability at 24 h, 10 µM worked out at 85%.

For the compound `COc1cccc(N2CCN(c3cc4oc(C)nc4cc3F)CC2)c1` [Compound 7i, 5-Fluoro-6-[4-(3-methoxy-phenyl)-piperazin-1-yl]-2-methyl-benzooxazole], the melting point is 124 to 125 °C. In addition, in data set [1], the viability at 0.1 µM was 105%, the viability at 1 µM was 102%, the viability at 10 µM was determined as 88% and the viability at 50 µM came to 76%. The viability at 100 µM in data set [1] was determined as 75%. In addition, the “Precipitation in cell-culture media” value in data set [2] was “precipitation problem”. In data set [3], the viability at 24 h, 0.1 µM came out at 100%; the viability at 24 h, 1 µM was found to be 102%; the viability at 24 h, 10 µM amounted to 91%.

For the compound `COc1cccc2c1C(=O)c1c(O)c3c(c(O)c1C2=O)C[C@@](O)(C(=O)CO)C[C@@H]3O[C@H]1C[C@H](N)[C@H](O)[C@H](C)O1` [doxorubicine, reference compound], in data set [4] (Homo sapiens, HepaRG cells, standard), 5.1 µM corresponded to half-maximal inhibition (IC50). That is a single-digit micromolar value.

For `Cc1nc2cc(F)c(N3CCN(c4ccccc4F)CC3)cc2o1` [Compound 7g, 5-Fluoro-6-(4-(2-fluorophenyl)-piperazin-1-yl)-2-methylbenzo[d]oxazole], the melting point lay in the range of 157 to 158 °C. In data set [1], the viability at 0.1 µM amounted to 96%, the viability at 1 µM is 92%, the viability at 10 µM amounted to 92% and the viability at 50 µM turned out to be 73%. Besides, in data set [1], the viability at 100 µM turned out to be 63%. For the same compound, in data set [2], the “Precipitation in cell-culture media” value was “precipitation problem”. In addition, in data set [3], the viability at 24 h, 0.1 µM came to 96%; the viability at 24 h, 1 µM came to 106%; the viability at 24 h, 10 µM is 87%.
